Patent US20180265867A1, “NUCLEIC ACID MOLECULES WITH ENHANCED ACTIVITY” (priority 2015, published 2018)
d = 2'-deoxy (DNA); r = 2'-OH (RNA)

Experiments:
[1] = system: Ctnnb1 (β-Catenin); test: Ctnnb1 expression in MC3T3-E1 cells by quantitative RT-PCR; type: cell-based, mouse
Procedure: MC3T3-E1 cells were cultured in α-MEM (Sigma-Aldrich, Haverhill, UK) medium containing 10% FBS, 1% L-Glutamine, and 1% antibiotics (PeSt) at 37° C. with 5% CO2. One day prior to the miRNA treatment, 35,000 cells were plated per each well of a 24-well plate. On the experiment day, cells were replaced with 2% heat inactivated-FBS containing α-MEM medium with 1% L-Glutamine, and 1% antibiotics (PeSt). miR-34a-CP (final concentration: 50 nM) was given to the each well. Mirvana scrambled miRNA mimic was used as a negative control.
After 24 hours of transfection, and incubation, RNA extraction was performed by using miRCURY RNA Isolation Kit—Cell and Plant (#300100) and protocol from Exiqon, Vedbæk, Denmark. RNA samples were treated with DNase for 30 minutes at 37 degrees, thereafter inactivated with a DNase inactivation solution (TUTRBO DNase AM2238 thermofisher). Thereafter, RNA concentrations were measured using NanoDrop ND-1000 from NanoDrop Technologies, Wilmington, Del.
The cDNA was made from the total RNA using High Capacity cDNA reverse transcription kit (Applied Biosystems, USA). Reactions were performed on a 96-well Bio-Rad Thermal Cycler PCR System at 37° C. for 60 minutes, and at 95° C. for 5 min respectively. Real-time PCR reactions were performed as follows: 10 μl of 2×TaqMan® Universal PCR Master Mix, no AmpErase® UNG (Applied Biosystems, USA), 9 μl 1:5 diluted cDNA, and 1 μl of TaqMan gene specific assay mix. Final volume of the reaction mix was 20 uL. Internal control gene beta-actin (ACTB) (Applied Biosystems, USA) was selected as control for normalization of TaqMan data. The qRT-PCR reaction comprised a non-template control of cDNA in order to rule out any non-specific reading. Taqman probes for Ctnnb1, Sox9, Actb, were obtained from Applied Biosystems. The qRT-PCR amplification was carried out using the Bio-Rad qRT-PCR Thermocycler.
In order to achieve the transfection reagent free delivery of therapeutically potential microRNAs, we tested miR-34a and compared with miR-34a-CP. Since microRNAs unlike siRNAs have multiple targets in the cell, and there is a necessity to reduce the off-target and undesirable effects if any, we have also designed siRNA model siR-34a-CP as stated above. We have used mouse preosteoblast cell line MC3T3-E1 obtained from calvarial bone for the in-vitro functional validation of cell-penetrating molecules. On the day before transfection experiment, 35000 MC3T3-E1 cells were cultured per each well of the 24-well culture plate in alpha-Minimum Essential Medium with 10% heat inactivated FBS, 1% L-Glutamine, 1% antibiotics (Pe/St). […] 5% CO2. Thereafter, RNA extraction, cDNA preparation, and quantitative real-time PCR was performed by using TaqMan procedure.

[2] = Thermal denaturation (Tm) of siRNA duplexes; type: physicochemical; conditions: for Tm: 7.5 mM phosphate buffer pH 7.0 containing 140 mM KCl, 1 μM strands, 40-95° C.; for Δ Tm: Tm relative to canonical siRNA (dT2); for drop in Tm: as compared to canonical siRNA
Procedure: Thermal denaturation studies of siRNA was carried out in phosphate buffer, pH 7.0, containing 140 mM KCl. UV absorbance was monitored at 260 nm in the temperature range from 40 to 95° C. using a Lambda 35 UV-Vis spectrophotometer equipped with a Peltier temperature programmer with a heating rate of 0.5° C./min. Samples (1 μM RNA) were denatured at 90° C. for 3 min followed by slow cooling to 27° C. prior to the measurements. Tm values were obtained from the maxima of the first derivatives of the melting curves. All Tm values given are the averages of three independent sets of experiments (±0.3° C. error range).

[3] = system: GAPDH; test: GAPDH gene knockdown in MG63 cells by RT-PCR; type: cell-based, human; conditions: MG63 cells; for GAPDH gene knockdown: 50 nM, 24 h
Procedure: At 70% confluency, a day prior to transfection, the cells were seeded at a density of 35 000 cells in a 24-well cell culture plate to achieve 60-80% confluence at the day of transfection. Cell penetrating siRNAs (cpRNAs) of different lengths were transfected at 50 nM concentrations with Magnet Assisted Transfection (MATra-si) reagent for siRNAs (IBA GmbH, Göttingen, Germany) according to the manufacturers' protocols. Briefly, the siRNA was mixed with MATra-si reagent composed of supermagnetic ironoxide nanoparticles and incubated for 20 min. A complex was formed which was added to the cells to be transfected. A strong magnetic force was applied beneath the cells for 15 min. This forced the complex to be drawn into the cells by the magnetic field, and as a result the siRNA was delivered directly into the cytosol. For carrier free transfection experiments, cpRNAs were simply added to cells lines MG63, HOB, HCT116, fibroblasts and keratinocytes at 50 nM concentrations. Cells were also transfected with negative control siRNA (scrambled sequence) and cells left untreated were taken as controls. Each transfection was performed in triplicate. Post transfection, cells were incubated for 24 hours.
For the experiments involving lysosomotropic agent chloroquine (CQ), CQ was first neutralized to pH 7.4 using 1 M NaOH prior to use. MG63 cells were transfected with dT2, dT5, dT8, (dT5)2, as(dT5), and bl(dT5) siRNA in presence or absence of 100 μM CQ or using MATra-si and incubated for 24 h. Similar experiments were performed for other cpRNAs namely, dA5, dT5, dG5, (dT5)2, rA5 and dC5. For the control experiment, cells were either left untreated or transfected with negative control siRNA (scrambled sequence). Each transfection experiment was performed in triplicate.
After performing transfection experiments for 24 h, 48 h and 72 h respectively, total RNA was isolated from cells by adding 500 μl of lysis buffer (Qiagen, Germany), followed by homogenization of cell lysates using QIAshredder (Qiagen, Germany). RNA was extracted from cell lysates by RNeasy Mini Kit (Qiagen, Germany). All RNA samples were treated with DNase using TURBO-DNAfree (Ambion, USA). Agilent 2100 BioAnalyzer (Agilent Technologies, Palo Alto, Calif.) was used to confirm high quality of all RNA samples, which reports an RNA Integrity Number (RIN) that takes into account the entire electrophoretic RNA trace produced in the analysis. A RIN of greater than or equal to seven indicates the RNA is suitable for high stringency applications.
cDNA synthesis was performed in triplicate using total RNA reverse transcribed using High Capacity cDNA reverse transcription kit (Applied Biosystems, USA), with non-template control added to ensure a lack of signal in assay background. Reactions were incubated on a 96-well Applied Biosystems 9800 Fast Thermal Cycler PCR System at 37° C. for 60 min followed by 95° C. for 5 min. The real-time PCR reactions were carried out with 10 μl of 2×TaqMan® Universal PCR Master Mix, no AmpErase® UNG (Applied Biosystems, USA), 9 μl diluted cDNA, and 1 μl of TaqMan gene specific assay mix in a 20 μl final reaction volume. Reference gene beta-actin (ACTB) (Applied Biosystems, USA) was selected as control for normalization of TaqMan data. The assay included a no-template control, a standard curve of five serial dilution points (in steps of 3-fold) of cDNA mixture. Probes specific for IFN-α (Hs01022060_m1), IFN-β (Hs01077958_s1), IFN-γ (Hs00985251_m1), ACTB(Hs01060665_g1) and GAPDH (Hs02758991_g1) were purchased from Applied Biosystems. The amplification was carried out using the 7500 Fast Real-Time PCR System (Applied Biosystems, USA) using a 40-cycle program. The 7500 software automatically calculates raw Ct (cycle threshold) values. Data from samples with a Ct value equal to or below 35 were further analyzed. […]

[4] = without transfection reagent MaTra (FIG. 12)

Substance	Tm [2]	Δ Tm [2]	drop in Tm [2]	GAPDH gene knockdown ([3]; carrier-free transfection)	further results
siR-34a-CP: Cell penetrating siRNA analog of miR-34a, sense SEQ ID NO: 24 with dA5, antisense SEQ ID NO: 25 (sense AAUCAGCUAAGUAUACUGCCAAAAAA; antisense UGGCAGUGUACUUAGCUGGUUGU; sense: sugars from the 5' end r21 d5, backbone not given here; antisense: RNA, backbone not given here)					Ctnnb1 expression ([1]; 50 nM, 24 h, alone without transfection reagent (FIG. 11)): up regulation of Ctnnb1; Ctnnb1 expression [1, 4]: up regulation of Ctnnb1
dC5: GAPDH siRNA, sense SEQ ID NO: 8 with dC5 3′-overhang, antisense SEQ ID NO: 2 with dT2 (sense CCGAGCCACAUCGCUCAGACCCCC; antisense UCUGAGCGAUGUGGCUCGGTT; sense: sugars from the 5' end r19 d5, backbone not given here; antisense: sugars from the 5' end r19 d2, backbone not given here)	80.9 °C	−0.3 °C			
(dT5)2: Symmetrical GAPDH siRNA, sense SEQ ID NO: 3 and antisense SEQ ID NO: 5, dT5 overhang at both 3′-ends (sense CCGAGCCACAUCGCUCAGATTTTT; antisense UCUGAGCGAUGUGGCUCGGTTTTT; sugars from the 5' end r19 d5, backbone not given here)	80.1 °C	−1.1 °C	~1 °C	65%	enhancement in activity compared to canonical siRNA ([3]; MATra-si transfection): 10%; GAPDH gene knockdown ([3]; MATra-si transfection): 70%
as(dT5): GAPDH siRNA, sense SEQ ID NO: 1 with dT2, antisense SEQ ID NO: 5 with dT5 3′-overhang (sense CCGAGCCACAUCGCUCAGATT; antisense UCUGAGCGAUGUGGCUCGGTTTTT; sense: sugars from the 5' end r19 d2, backbone not given here; antisense: sugars from the 5' end r19 d5, backbone not given here)	79.5 °C	−1.7 °C		20%	
dG5: GAPDH siRNA, sense SEQ ID NO: 7 with dG5 3′-overhang, antisense SEQ ID NO: 2 with dT2 (sense CCGAGCCACAUCGCUCAGAGGGGG; antisense UCUGAGCGAUGUGGCUCGGTT; sense: sugars from the 5' end r19 d5, backbone not given here; antisense: sugars from the 5' end r19 d2, backbone not given here)	79.2 °C	−2.0 °C	~2 °C		
miR-34a: Natural miR-34a duplex, sense SEQ ID NO: 20, antisense SEQ ID NO: 21 (sense CAAUCAGCAAGUAUACUGCCCU; antisense UGGCAGUGUCUUAGCUGGUUGU; unmodified RNA) [reference compound]					Ctnnb1 expression ([1]; transfected with MaTra (FIG. 12)): induced over expression of Ctnnb1; Ctnnb1 expression [1, 4]: did not show any effect on the expression levels of Ctnnb1
bl(dT5): GAPDH siRNA, sense SEQ ID NO: 3 with dT5, blunt ended antisense SEQ ID NO: 11 without overhang (sense CCGAGCCACAUCGCUCAGATTTTT; antisense UCUGAGCGAUGUGGCUCGG; sense: sugars from the 5' end r19 d5, backbone not given here; antisense: RNA, backbone not given here)	79.1 °C	−2.1 °C		60%	decrease in activity ([3]; 3′-dT2 of antisense strand removed, versus dT5): 20%
rA5: GAPDH siRNA, sense SEQ ID NO: 9 with ribo A5 3′-overhang, antisense SEQ ID NO: 10 with U2 (sense CCGAGCCACAUCGCUCAGAAAAAA; antisense UCUGAGCGAUGUGGCUCGGUU; RNA, backbone not given here)	79.0 °C	−2.2 °C		60%	
dA5: GAPDH siRNA, sense SEQ ID NO: 6 with dA5 3′-overhang, antisense SEQ ID NO: 2 with dT2 (sense CCGAGCCACAUCGCUCAGAAAAAA; antisense UCUGAGCGAUGUGGCUCGGTT; sense: sugars from the 5' end r19 d5, backbone not given here; antisense: sugars from the 5' end r19 d2, backbone not given here)	79.6 °C	−1.6 °C	~1.5 °C	80%	RNAi activity among different 5-nt candidates ([3]; FIG. 2B): highest RNAi activity
